The structures appear in SMILES notation. pKi: −log10 of the molar value.

In general, pKi refers to the Ki on a negative log10 scale, so that one unit is a factor of ten.

T1 sequence (P43116 whole entry): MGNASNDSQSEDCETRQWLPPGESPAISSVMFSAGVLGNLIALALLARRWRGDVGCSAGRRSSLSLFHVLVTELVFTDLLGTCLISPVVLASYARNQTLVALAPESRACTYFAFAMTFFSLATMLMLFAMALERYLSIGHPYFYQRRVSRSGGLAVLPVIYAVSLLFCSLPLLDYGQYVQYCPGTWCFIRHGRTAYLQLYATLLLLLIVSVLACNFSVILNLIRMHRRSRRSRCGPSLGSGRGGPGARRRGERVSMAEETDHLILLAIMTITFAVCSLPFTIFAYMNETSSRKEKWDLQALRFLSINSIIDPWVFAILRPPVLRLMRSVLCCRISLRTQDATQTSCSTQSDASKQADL

The experiment has as its target T1, recombinant human EP-2 receptor (Homo sapiens, UniProt P43116).
T1 construct: stably transfected with full length cDNA encoding human Prostaglandin E2; expressed in transfected cells
As to the kind of experiment: In vitro antagonist potency against recombinant human prostaglandin E2 (EP-2) receptor in CHO cells (cAMP, Protocol 1). The conditions noted are these: CHO cells expressing recombinant human EP-2 receptor, stimulated with 5 nM PGE2; cAMP readout; Ki by Cheng-Prusoff equation; read-out: EP2 Ki. In kind it is cell-based. On the procedure:
1.0 Measurement of In Vitro Antagonist Potency (IC50) of Compounds Against Recombinant Human Prostaglandin E2 Receptor in CHO Cells
The prostaglandin E2 (EP-2) receptor is Gs coupled and agonism of the receptor by PGE2 results in activation of intracellular adenylate cyclase enzymes that synthesise the second messenger signalling molecule, adenosine 3′,5′-cyclic monophosphate (cAMP). CHO cells expressing the recombinant human EP-2 receptor are stimulated with PGE2 (5 nM) equivalent to approximately […] values to give the maximal cAMP signal. Decreases in cAMP levels following treatment of stimulated recombinant EP-2 cells with potential antagonist compounds were measured and potency (IC50) calculated as follows.
A Chinese hamster ovary (CHO) cell line stably transfected with full length cDNA encoding human Prostaglandin E2 was established using standard molecular biology methods. Test compounds were dissolved in dimethyl sulphoxide (DMSO) at 4 mM. 11 point half log unit increment dilution series of test compound were prepared in DMSO then diluted 1 in 40 in a buffer comprised of phosphate buffered saline (PBS) and 0.05% pluronic F-127 surfactant. Freshly cultured cells at 80-90% confluence were harvested and re-suspended in 90% growth media/10% DMSO. The cells were frozen using a planar freezer and stored in frozen aliquots in cryovials in liquid nitrogen until the day of the experiment. A vial of cells was defrosted in a 37° C. water bath for 2 min, then transferred to 10 ml of Dulbecco's Modified Eagle's Medium (DMEM). The cells were then centrifuged for 5 min at 1000 g and the pellet re-suspended at 1,000,000 cells/ml in DMEM. 5,000 cells (5 ul) were added to 5 ul of the compound dilution series in a 384 well assay plate and pre-incubated for 30 min at 37° C. 5 ul of agonist (15 nM PGE2 in PBS to give 5 nM FAC) was added and plates further incubated for 90 min at 37° C. The relative cAMP concentration in each well was then measured using a β-galactosidase enzyme fragment complementation method purchased in kit form as the Discoverx cAMP II kit from GE Healthcare, UK. […] Sigmoidal curves were fitted to plots of log10 inhibitor concentration vs percent effect. IC50 estimates were determined as the concentration of test compound giving an effect half way between the bottom and top asymptotes of the sigmoidal dose response curve. Each experiment included an IC50 determination for the literature compound as a standard to track assay consistency and allow fair comparison between values obtained in different experiments. The EC50 of PGE2 is used in combination with the ligand concentration in the assay to determine Ki values for antagonist dose responses using the Cheng-Prusoff equation. Consequently an agonist dose response curve is carried out for each experiment using the same incubation as the antagonist plate.
With `COc1ccc(C(=O)N2CCC(COc3ccc(-c4ccc(C#N)cc4)cc3)(C(=O)O)C2)cc1` (single isomer, unassigned) [Example 1, 3-(4′-Cyano-biphenyl-4-yloxymethyl)-1-(4-methoxy-benzoyl)-pyrrolidine-3-carboxylic acid], the pKi is 9.20.

Regarding `N#Cc1ccc(-c2ccc(OCC3(C(=O)O)CCN(C(=O)c4ccc(F)cc4)C3)cc2)cc1` (single isomer, unassigned) [Example 2, 3-(4′-Cyano-biphenyl-4-yloxymethyl)-1-(4-fluoro-benzoyl)-pyrrolidine-3-carboxylic acid], the pKi was 9.46. Turning to `O=C(c1ccc(F)cc1)N1CCC(COc2cnc(-c3ccc(Cl)cc3)nc2)(C(=O)O)C1` (single isomer, unassigned) [Example 5], the negative-log Ki (pKi) is 8.79.

Regarding `O=C(c1ccc(F)cc1)N1CCC(COc2cnc(-c3ccc(Cl)cc3)nc2)(C(=O)O)C1` (single isomer, unassigned) [Example 6], the negative logarithm of the Ki (pKi) was 6.99. Turning to `O=C(c1ccc(F)cc1)N1CCC(COc2ccc(-c3ccc(Cl)cc3)nc2)(C(=O)O)C1` (single isomer, unassigned) [Example 7], the pKi was 8.53. `O=C(c1ccc(F)cc1)N1CCC(COc2cnc(-c3ccc(Cl)cc3)cn2)(C(=O)O)C1` (single isomer, unassigned) [Example 10]: the pKi is 9.13.

With `O=C(c1ccc(F)cc1)N1CCC(COc2cnc(-c3ccc(Cl)cc3)cn2)(C(=O)O)C1` (single isomer, unassigned) [Example 11], the negative logarithm of the Ki (pKi) is 7.54. `O=C(c1ccc(F)cc1)N1CCC(COc2ccc(-c3ccc(Cl)cn3)cc2)(C(=O)O)C1` (single isomer, unassigned) [Example 12]: the pKi is 8.32. Consider `O=C(c1ccc(F)cc1)N1CCC(COc2ccc(-c3ccc(Cl)cn3)cc2)(C(=O)O)C1` (single isomer, unassigned) [Example 13], for which the negative logarithm of the Ki (pKi) was 6.48. The figure for `O=C(c1ccc(F)cc1)N1CCC(COc2cccc(F)c2F)(C(=O)O)C1` (single isomer, unassigned) [Example 14] is 6.28. `O=C(c1ccc(F)cc1)N1CCC(COc2ccc(-c3ncc(Cl)cn3)cc2)(C(=O)O)C1` (single isomer, unassigned) [Example 15]: the pKi was 7.07. With `O=C(c1ccc(F)cc1)N1CCC(COc2ccc(-c3ncc(Cl)cn3)cc2)(C(=O)O)C1` (single isomer, unassigned) [Example 16], the pKi was 9.16. The figure for `O=C(c1ccc(F)cc1)N1CCC(COc2ccc(-c3ccc(F)cc3)cc2)(C(=O)O)C1` (single isomer, unassigned) [Example 17] is 8.70; for `O=C(c1ccc(F)cc1)N1CCC(COc2ccc(-c3ccc(F)cc3)cc2)(C(=O)O)C1` (single isomer, unassigned) [Example 18] it is 7.76. Regarding `O=C(c1ccc(F)cc1)N1CCC(COc2ccc(F)c(Cl)c2)(C(=O)O)C1` (single isomer, unassigned) [Example 25], the pKi was 6.72. Turning to `N#Cc1ccc(-c2ccc(OCC3(C(=O)O)CCN(C(=O)c4ccc(Cl)cc4)C3)cc2)cc1` (single isomer, unassigned) [Example 26], the pKi was 10.42. As for `N#Cc1ccc(-c2ccc(OCC3(C(=O)O)CCN(C(=O)c4ccc(Cl)cc4)C3)cc2)cc1` (single isomer, unassigned) [Example 27], the figure is 8.36. On to `O=C(c1ccc(Cl)cc1)N1CCC(COc2ccc(-c3ncc(Cl)cn3)cc2)(C(=O)O)C1` (single isomer, unassigned) [Example 30], for which the negative-log Ki (pKi) is 9.34.

Regarding `O=C(c1ccc(Cl)cc1)N1CCC(COc2ccc(-c3ncc(Cl)cn3)cc2)(C(=O)O)C1` (single isomer, unassigned) [Example 31], the pKi was 6.55.

`O=C(c1ccc(Cl)cc1)N1CCC(COc2ccc(-c3ccc(Cl)cc3)nc2)(C(=O)O)C1` (single isomer, unassigned) [Example 32]: the pKi is 9.13.

The values are drawn from US8278343B2, “Pyrrolidines” (Pfizer Inc., priority 2008, dated 2012).
